The numbers were not newly measured in patent US20090191287A1, “Mitigation of Inflammation-Related Injuries” (priority 2008, published 2009), which cites them from elsewhere.

One data set concerns myocardium at risk. Particulars: allopurinol-pretreated dogs, left anterior descending artery ligated; control group 23%.
Data set [1] relates to high-risk coronary surgery patients. Particulars: high-risk coronary surgery patients pretreated before operating; placebo 17%.
In a further data set the test system is heart infarct. Particulars: dogs pretreated with allopurinol; control dogs 40%.

Consider `Oc1ncnc2[nH]ncc12` [allopurinol], for which the “myocardium at risk destroyed (myocardial necrosis)” value in the data set on myocardium at risk was 9%. The mortality rate in data set [1] is 4%. The heart infarct size with heart infarct is on record as 22%.
